Laboratory results as given in the CheMixHub viscosity set.
“And” between values parts separate entries of the source, which are not always exact repeats. Equal values may be shown once.

Experiment: xn = mol fraction of the nth substance listed

C1=CCCCC1 + C1CCCCC1
303.15 K, 101 kPa
Settings | viscosity [mPa·s]
x1 = 0.1133 | 0.772
x1 = 0.2435 | 0.745
x1 = 0.3293 | 0.725
x1 = 0.3919 | 0.72
x1 = 0.4866 | 0.684
x1 = 0.582 | 0.678
x1 = 0.7181 | 0.654
x1 = 0.8663 | 0.62

N#CCc1ccccc1 + CNC(C)=O
308.15 K, 101.33 kPa
Settings | viscosity [mPa·s]
x2 = 0.0446 | 1.599
x2 = 0.2775 | 1.791
x2 = 0.3928 | 1.896
x2 = 0.5001 | 2.049
x2 = 0.6015 | 2.252
x2 = 0.6941 | 2.456
x2 = 0.7795 | 2.662
x2 = 0.8542 | 2.87
x2 = 0.9375 | 3.109

CCCCCl + c1ccccc1
viscosity [mPa·s], 101 kPa
Settings | 298.15 K | 308.15 K | 318.15 K | 323.15 K
x1 = 0.098 | 0.557 | 0.492 | 0.437 | 0.417
x1 = 0.153 | 0.542 | 0.481 | 0.428 | 0.404
x1 = 0.8 | 0.454 | – | – | 0.358

CCCCCCCCCCCCCCCCCCCCCCCC + CCCCCCC
Settings | viscosity [mPa·s]
313.2 K, 101.3 kPa, x1 = 0.198 | 0.9672

CCOC(=O)c1ccccc1 + CC(=O)CC(C)C
viscosity [mPa·s], 101.33 kPa
Settings | 293.15 K | 303.15 K
x2 = 0.0752 | 1.89 | 1.55
x2 = 0.1491 | 1.675 | 1.376
x2 = 0.2022 | 1.58 | 1.303
x2 = 0.3364 | 1.375 | 1.15
x2 = 0.4004 | 1.277 | 1.079
x2 = 0.5355 | 1.109 | 0.94
x2 = 0.6213 | 0.988 | 0.85
x2 = 0.7165 | 0.88 | 0.757
x2 = 0.7942 | 0.797 | 0.69
x2 = 0.8805 | 0.719 | 0.625
x2 = 0.9154 | 0.686 | 0.599
x2 = 0.9549 | 0.648 | 0.569

CCCNCCC + CCCCCCCO
viscosity [mPa·s], 101.33 kPa
Settings | x1 = 0.0952 | x1 = 0.1932 | x1 = 0.2891 | x1 = 0.3853 | x1 = 0.5194 | x1 = 0.6089 | x1 = 0.717 | x1 = 0.8156 | x1 = 0.9054
303.15 K | 4.145 | 3.485 | 2.867 | 2.311 | 1.672 | 1.333 | 1.02 | 0.809 | 0.6553
313.15 K | 3.063 | 2.556 | 2.111 | 1.724 | 1.283 | 1.045 | 0.8136 | 0.6509 | 0.5273

CCCNCCC + CCCCOCCO
viscosity [mPa·s], 100 kPa
Settings | 298.15 K | 303.15 K | 308.15 K
x2 = 0.05 | 0.558 | 0.519 | 0.489
x2 = 0.1003 | 0.62 | 0.576 | 0.538
x2 = 0.1502 | 0.691 | 0.64 | 0.597
x2 = 0.1999 | 0.775 | 0.709 | 0.662
x2 = 0.2999 | 0.982 | 0.888 | 0.826
x2 = 0.3998 | 1.254 | 1.118 | 1.035
x2 = 0.5001 | 1.549 | 1.37 | 1.255
x2 = 0.5999 | 1.887 | 1.654 | 1.51
x2 = 0.6997 | 2.216 | 1.935 | 1.752
x2 = 0.7999 | 2.527 | 2.18 | 1.97
x2 = 0.8996 | 2.731 | 2.356 | 2.141
x2 = 0.9499 | 2.787 | 2.437 | 2.209

CCCCCl + CCCCO
viscosity [mPa·s], 101 kPa
Settings | x1 = 0.0749 | x1 = 0.2028 | x1 = 0.3021 | x1 = 0.4122 | x1 = 0.5016 | x1 = 0.6048 | x1 = 0.7044 | x1 = 0.8062 | x1 = 0.9064
298.15 K | 2.121 | 1.523 | – | 0.9486 | – | 0.6572 | 0.5679 | 0.4955 | 0.4465
313.15 K | 1.449 | 1.081 | 0.8789 | 0.7145 | 0.6192 | 0.5213 | 0.4589 | 0.4114 | 0.3742

NCC(=O)NCC(=O)O + O
viscosity
Settings | 293.15 K | 298.15 K | 303.15 K | 308.15 K | 313.15 K | 318.15 K | 323.15 K
100 kPa, x1 = 0.000887 | – | 0.9004 mPa·s | – | 0.7285 mPa·s | 0.6622 mPa·s | 0.6045 mPa·s | –
100 kPa, x1 = 0.00175 | – | 0.907 mPa·s | 0.8135 mPa·s | 0.7349 mPa·s | 0.6683 mPa·s | 0.6105 mPa·s | –
100 kPa, x1 = 0.002593 | – | 0.9129 mPa·s | 0.8194 mPa·s | 0.7408 mPa·s | 0.6742 mPa·s | 0.6162 mPa·s | –
100 kPa, x1 = 0.003411 | – | 0.9185 mPa·s | 0.8251 mPa·s | 0.7465 mPa·s | 0.6797 mPa·s | 0.6216 mPa·s | –
100 kPa, x1 = 0.004207 | – | 0.9239 mPa·s | 0.8307 mPa·s | 0.752 mPa·s | 0.685 mPa·s | 0.6269 mPa·s | –
100 kPa, x1 = 0.004983 | – | 0.9292 mPa·s | 0.836 mPa·s | 0.7573 mPa·s | 0.6904 mPa·s | 0.6322 mPa·s | –
100 kPa, x1 = 0.005739 | – | 0.9343 mPa·s | 0.8413 mPa·s | 0.7627 mPa·s | 0.6957 mPa·s | 0.6374 mPa·s | –
100 kPa, x1 = 0.006476 | – | 0.9394 mPa·s | 0.8465 mPa·s | 0.7679 mPa·s | 0.7006 mPa·s | 0.6425 mPa·s | –
101.3 kPa, x1 = 0.002 | 1.04 mPa·s and 1.04 mPa·s | – | 0.82 mPa·s and 0.82 mPa·s | – | 0.67 mPa·s and 0.67 mPa·s | – | 0.56 mPa·s and 0.56 mPa·s
101.3 kPa, x1 = 0.004 | 1.08 mPa·s and 1.08 mPa·s | – | 0.85 mPa·s and 0.85 mPa·s | – | 0.69 mPa·s and 0.69 mPa·s | – | 0.59 mPa·s and 0.59 mPa·s
101.3 kPa, x1 = 0.005 | 1.1 mPa·s and 1.1 mPa·s | – | 0.87 mPa·s and 0.87 mPa·s | – | 0.71 mPa·s and 0.71 mPa·s | – | 0.6 mPa·s and 0.6 mPa·s
101.3 kPa, x1 = 0.007 | 1.14 mPa·s and 1.14 mPa·s | – | 0.9 mPa·s and 0.9 mPa·s | – | 0.74 mPa·s and 0.74 mPa·s | – | 0.62 mPa·s and 0.62 mPa·s

[Li+].[O-][Cl+3]([O-])([O-])[O-] + C1CCOC1
101 kPa, x1 = 0.07
Settings | viscosity [mPa·s]
303.15 K | 0.85
308.15 K | 0.81
313.15 K | 0.78
318.15 K | 0.74
323.15 K | 0.71

CCC(C)CO (stereo not given) + O
298.15 K, 101 kPa
Settings | viscosity [mPa·s]
x2 = 0.0025 | 4.797
x2 = 0.0548 | 4.447
x2 = 0.0985 | 4.284
x2 = 0.1421 | 4.163
x2 = 0.1741 | 4.101
x2 = 0.1943 | 4.07
x2 = 0.2403 | 4.025
x2 = 0.2657 | 4.011
x2 = 0.2859 | 4.01
x2 = 0.2923 | 4.005
x2 = 0.3149 | 4.005

O=C(O)c1cccc([N+](=O)[O-])c1 + CO
viscosity [mPa·s], 101 kPa
Settings | x1 = 0.0362 | x1 = 0.0466 | x1 = 0.0506 | x1 = 0.0604 | x1 = 0.09126 | x1 = 0.1046
308.15 K | 0.8055 | 0.9203 | 0.9556 | – | 1.889 | 2.773
313.15 K | – | – | – | – | 1.727 | 2.425
318.15 K | – | – | – | – | 1.573 | 2.262
323.15 K | 0.646 | 0.7331 | 0.7603 | 0.8441 | 1.421 | 2.026

[Li+].[O-][Cl+3]([O-])([O-])[O-] + O=S1(=O)CCCC1
101 kPa, x1 = 0.1
Settings | viscosity
303.15 K | 28.58 mPa·s and 28.57 mPa·s
308.15 K | 24.56 mPa·s
313.15 K | 20.83 mPa·s
318.15 K | 18.28 mPa·s
323.15 K | 16.02 mPa·s

N#CCc1ccccc1 + ClCCCl
101 kPa
Settings | viscosity [mPa·s]
303.15 K, x1 = 0.9705 | 1.725
313.15 K, x1 = 0.648 | 1.165
